In patent publication US10654853B2, “Spiro-condensed pyrrolidine derivatives as deubiquitylating enzymes (DUB) inhibitors” (MISSION THERAPEUTICS LIMITED, priority 2016, dated 2020) one finds IC50 data, which are given here for 33 molecules.

One may read the IC50 as the concentration that gives 50% inhibition.

The test concerns the target Cezanne 1 (Homo sapiens (Human), UniProt Q6GQQ9). Put plainly: Cezanne 1 biochemical IC50 assay (fluorescence polarisation, TAMRA labelled peptide linked to ubiquitin). A digest of the protocol:
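FLAG-tagged Cezanne 1, expressed in HEK293T and FLAG-purified, was preincubated with compound for 30 min at room temperature in Tris pH 7.5 buffer with Tween 20, BSA and β-mercaptoethanol. Reactions were started with 50 nM TAMRA-peptide isopeptide-linked to ubiquitin. Fluorescence polarisation (ex 540/em 590 nm) was read immediately and after 2 h.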

Setting [1] is: Cezanne 1 biochemical IC50 assay, 30 min pre-incubation, read after 2 hr at room temperature, read-out: IC50 range.

Like-named read-outs stand apart in the source and are kept apart here.

Sequence of Cezanne 1 (Q6GQQ9 whole entry): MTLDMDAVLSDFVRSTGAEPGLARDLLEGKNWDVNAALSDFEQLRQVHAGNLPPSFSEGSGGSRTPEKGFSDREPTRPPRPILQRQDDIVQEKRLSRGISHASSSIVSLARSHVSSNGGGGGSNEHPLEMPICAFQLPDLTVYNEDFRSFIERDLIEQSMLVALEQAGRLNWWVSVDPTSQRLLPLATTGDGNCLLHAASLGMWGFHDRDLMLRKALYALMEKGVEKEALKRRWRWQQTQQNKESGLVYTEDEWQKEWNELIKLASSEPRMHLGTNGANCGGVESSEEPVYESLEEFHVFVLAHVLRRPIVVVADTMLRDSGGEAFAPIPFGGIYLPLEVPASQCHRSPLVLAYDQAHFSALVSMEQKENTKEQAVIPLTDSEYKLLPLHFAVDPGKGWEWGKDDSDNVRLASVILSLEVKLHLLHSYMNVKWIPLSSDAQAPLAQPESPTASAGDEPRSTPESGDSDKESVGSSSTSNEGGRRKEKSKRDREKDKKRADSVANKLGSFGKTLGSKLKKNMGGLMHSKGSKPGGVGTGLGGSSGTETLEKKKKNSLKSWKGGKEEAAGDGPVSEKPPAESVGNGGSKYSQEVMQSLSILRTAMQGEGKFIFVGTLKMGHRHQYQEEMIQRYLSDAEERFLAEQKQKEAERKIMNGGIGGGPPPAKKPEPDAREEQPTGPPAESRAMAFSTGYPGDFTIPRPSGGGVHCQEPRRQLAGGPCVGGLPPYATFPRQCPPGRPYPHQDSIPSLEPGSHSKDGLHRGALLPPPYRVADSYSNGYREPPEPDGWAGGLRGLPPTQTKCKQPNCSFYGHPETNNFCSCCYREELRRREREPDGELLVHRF

Turning to `Cc1ccc2[nH]ncc2c1-c1ccc2c(c1)NC(=O)C1(CCN(C#N)C1)C2` (stereo not drawn) [Example 25, 7′-(5-Methyl-1H-indazol-4-yl)-2′-oxo-1′,4′-dihydro-2′H-spiro[pyrrolidine-3,3′-quinoline]-1-carbonitrile], the IC50 under setting [1] lay in the range of 100 to 1000 nM.

For the molecule `Cc1ccc2[nH]ncc2c1-c1ccc2c(c1)CC1(CCN(C#N)C1)C(=O)N2` (stereo not drawn) [Example 108, 6′-(5-Methyl-1H-indazol-4-yl)-2′-oxo-1′,4′-dihydro-2′H-spiro[pyrrolidine-3,3′-quinoline]-1-carbonitrile], the 50% inhibitory concentration (IC50) under setting [1] fell in the range of 100 to 1000 nM.

As to `CC(=O)Nc1cccc(-c2ccc3c(c2)CC2(CCN(C#N)C2)C(=O)N3)c1` (stereo not drawn) [Example 112, N-(3-(1-Cyano-2′-oxo-1′,4′-dihydro-2′H-spiro[pyrrolidine-3,3′-quinolin]-6′-yl)phenyl)acetamide], the half-maximal inhibitory concentration (IC50) under setting [1] lay in the range of 100 to 1000 nM.

Take `N#CN1CCC2(C1)Nc1nc(-c3ccccc3)ccc1NC2=O` (stereo not drawn) [Example 147, 2-Oxo-6-phenyl-1,4-dihydro-2H-spiro[pyrido[2,3-b]pyrazine-3,3′-pyrrolidine]-1′-carbonitrile]: under setting [1], the half-inhibitory concentration (IC50) lay in the range of 1000 to 10000 nM.

Regarding `Cc1cc(-c2ccc3c(c2)CC2(CCN(C#N)C2)C(=O)N3)ccn1` (stereo not drawn) [Example 131, 6′-(2-Methylpyridin-4-yl)-2′-oxo-1′,4′-dihydro-2′H-spiro[pyrrolidine-3,3′-quinoline]-1-carbonitrile], the IC50 under setting [1] lay within 100 to 1000 nM.

Take `COc1ccc(-c2cnc3c(c2)NC(=O)C2(CCN(C#N)C2)O3)c(C)n1` (stereo not drawn) [Example 138, 7-(6-Methoxy-2-methylpyridin-3-yl)-2-oxo-1,2-dihydrospiro[pyrido[2,3-b][1,4]oxazine-3,3′-pyrrolidine]-1′-carbonitrile]: the concentration for half-maximal inhibition (IC50) under setting [1] was in the range of 100 to 1000 nM.

In the case of `CN1CCN(C(=O)c2ccc(-c3ccc4c(c3)CC3(CCN(C#N)C3)C(=O)N4)cc2)CC1` (stereo not drawn) [Example 106, 6′-(4-(4-Methylpiperazine-1-carbonyl)phenyl)-2′-oxo-1′,4′-dihydro-2′H-spiro[pyrrolidine-3,3′-quinoline]-1-carbonitrile], the concentration for half-maximal inhibition (IC50) under setting [1] lay within 1000 to 10000 nM.

Consider `N#CN1CCC2(CC(Cc3ccccc3)NC2=O)C1` (stereo not drawn) [Example 81, 8-Benzyl-6-oxo-2,7-diazaspiro[4.4]nonane-2-carbonitrile], for which the IC50 under setting [1] lay in the range of 1000 to 10000 nM.

`N#CN1CC[C@@]2(C1)Nc1ncc(-c3ccccc3)cc1NC2=O` [Example 68, (S)-2-Oxo-7-phenyl-1,4-dihydro-2H-spiro[pyrido[2,3-b]pyrazine-3,3′-pyrrolidine]-1′-carbonitrile]: under setting [1], the IC50 fell in the range of 100 to 1000 nM.

With `Cc1nc2cc(-c3ccc4c(c3)NC(=O)C3(CCN(C#N)C3)C4)ccc2s1` (stereo not drawn) [Example 40, 7′-(2-Methylbenzo[d]thiazol-5-yl)-2′-oxo-1′,4′-dihydro-2′H-spiro[pyrrolidine-3,3′-quinoline]-1-carbonitrile], the IC50 under setting [1] was 100 to 1000 nM.

With `CNC(=O)c1ccc(-c2ccc3c(c2)CC2(CCN(C#N)C2)C(=O)N3)cc1` (stereo not drawn) [Example 100, 4-(1-Cyano-2′-oxo-1′,4′-dihydro-2′H-spiro[pyrrolidine-3,3′-quinolin]-6′-yl)-N-methylbenzamide], the 50% inhibitory concentration (IC50) under setting [1] was in the range of 100 to 1000 nM.

Regarding `N#CN1CCC2(Cc3ccc(-c4ccccc4)cc3NC2=O)C1` (stereo not drawn) [Example 4, 2′-Oxo-7′-phenyl-1′,4′-dihydro-2′H-spiro[pyrrolidine-3,3′-quinoline]-1-carbonitrile], the IC50 under setting [1] was in the range of 1000 to 10000 nM.

`N#CN1CCC2(Cc3ccc(Cl)cc3NC2=O)C1` (stereo not drawn) [Example 2, 7′-Chloro-2′-oxo-1′,4′-dihydro-2′H-spiro[pyrrolidine-3,3′-quinoline]-1-carbonitrile] registered an IC50 of 1000 to 10000 nM.

As for `N#CN1CCC2(Cc3ccc(-c4cncnc4)cc3NC2=O)C1` (stereo not drawn) [Example 28, 2′-Oxo-7′-(pyrimidin-5-yl)-1′,4′-dihydro-2′H-spiro[pyrrolidine-3,3′-quinoline]-1-carbonitrile], the IC50 under setting [1] fell in the range of 100 to 1000 nM.

In the case of `N#CN1CC[C@@]2(C1)Nc1ncc(-c3cccc(F)c3)cc1NC2=O` [Example 73, (S)-7-(3-Fluorophenyl)-2-oxo-1,4-dihydro-2H-spiro[pyrido[2,3-b]pyrazine-3,3′-pyrrolidine]-1′-carbonitrile], under setting [1], the IC50 lay within 100 to 1000 nM.

As for `N#CN1CCC2(C1)Oc1nc(C(=O)N3CCCCC3)ccc1NC2=O` (stereo not drawn) [Example 142, 2-Oxo-6-(piperidine-1-carbonyl)-1,2-dihydrospiro[pyrido[2,3-b][1,4]oxazine-3,3′-pyrrolidine]-1′-carbonitrile], the IC50 under setting [1] fell in the range of 1000 to 10000 nM.

`N#CN1CCC2(Cc3cc(-c4ccc(C(=O)N5CCOCC5)cc4)ccc3NC2=O)C1` (stereo not drawn) [Example 120, 6′-(4-(Morpholine-4-carbonyl)phenyl)-2′-oxo-1′,4′-dihydro-2′H-spiro[pyrrolidine-3,3′-quinoline]-1-carbonitrile]: the half-inhibitory concentration (IC50) under setting [1] was in the range of 100 to 1000 nM.

Turning to `N#CN1CCC2(C1)Oc1nc(C(=O)Nc3ccccc3F)ccc1NC2=O` (stereo not drawn) [Example 144, 1′-Cyano-N-(2-fluorophenyl)-2-oxo-1,2-dihydrospiro[pyrido[2,3-b][1,4]oxazine-3,3′-pyrrolidine]-6-carboxamide], the IC50 under setting [1] lay in the range of 100 to 1000 nM.

Turning to `N#CN1CCC2(C1)Nc1ncccc1NC2=O` (stereo not drawn) [Example 55, 2-Oxo-1,4-dihydro-2H-spiro[pyrido[2,3-b]pyrazine-3,3′-pyrrolidine]-1′-carbonitrile], the concentration for half-maximal inhibition (IC50) under setting [1] is 1000 to 10000 nM.

In the case of `N#CN1CCC2(C1)Oc1ncccc1NC2=O` (stereo not drawn) [Example 48, 2-Oxo-1,2-dihydrospiro[pyrido[2,3-b][1,4]oxazine-3,3′-pyrrolidine]-1′-carbonitrile], under setting [1], the IC50 is 100 to 1000 nM.

Take `N#Cc1cccc(-c2cnc3c(c2)NC(=O)C2(CCN(C#N)C2)O3)c1` (stereo not drawn) [Example 51, 7-(3-Cyanophenyl)-2-oxo-1,2-dihydrospiro[pyrido[2,3-b][1,4]oxazine-3,3′-pyrrolidine]-1′-carbonitrile]: under setting [1], the half-inhibitory concentration (IC50) was 100 to 1000 nM.

In the case of `N#CN1CCC2(C1)Oc1ncc(-c3cccc4[nH]ncc34)cc1NC2=O` (stereo not drawn) [Example 135, 7-(1H-Indazol-4-yl)-2-oxo-1,2-dihydrospiro[pyrido[2,3-b][1,4]oxazine-3,3′-pyrrolidine]-1′-carbonitrile], under setting [1], the concentration for half-maximal inhibition (IC50) was under 100 nM.

With `CC(=O)Nc1ccccc1-c1ccc2c(c1)NC(=O)C1(CCN(C#N)C1)C2` (stereo not drawn) [Example 36, N-(2-(1-Cyano-2′-oxo-1′,4′-dihydro-2′H-spiro[pyrrolidine-3,3′-quinolin]-7′-yl)phenyl)acetamide], the half-maximal inhibitory concentration (IC50) under setting [1] lay within 100 to 1000 nM.

`N#CN1CCC2(Cc3cc(-c4cccc(NS(=O)(=O)C5CC5)c4)ccc3NC2=O)C1` (stereo not drawn) [Example 109, N-(3-(1-Cyano-2′-oxo-1′,4′-dihydro-2′H-spiro[pyrrolidine-3,3′-quinolin]-6′-yl)phenyl)cyclopropanesulfonamide]: the half-inhibitory concentration (IC50) under setting [1] is 100 to 1000 nM.

`CNC(=O)c1ccc(-c2ccc3c(c2)NC(=O)C2(CCN(C#N)C2)C3)cc1` (stereo not drawn) [Example 17, 4-(1-Cyano-2′-oxo-1′,4′-dihydro-2′H-spiro[pyrrolidine-3,3′-quinolin]-7′-yl)-N-methylbenzamide]: the IC50 under setting [1] lay within 1000 to 10000 nM.

Take `N#CN1CCC2(Cc3ccc(-c4cccc(S(=O)(=O)N5CCOCC5)c4)cc3NC2=O)C1` (stereo not drawn) [Example 38, 7′-(3-(Morpholinosulfonyl)phenyl)-2′-oxo-1′,4′-dihydro-2′H-spiro[pyrrolidine-3,3′-quinoline]-1-carbonitrile]: the half-inhibitory concentration (IC50) under setting [1] lay in the range of 1000 to 10000 nM.

Regarding `COc1ccc(-c2ccc3c(c2)CC2(CCN(C#N)C2)C(=O)N3)cn1` (stereo not drawn) [Example 103, 6′-(6-Methoxypyridin-3-yl)-2′-oxo-1′,4′-dihydro-2′H-spiro[pyrrolidine-3,3′-quinoline]-1-carbonitrile], under setting [1], the IC50 was in the range of 100 to 1000 nM.

In the case of `CC(C)Oc1ccc(F)cc1-c1ccc2c(c1)NC(=O)C1(CCN(C#N)C1)C2` (stereo not drawn) [Example 21, 7′-(5-Fluoro-2-isopropoxyphenyl)-2′-oxo-1′,4′-dihydro-2′H-spiro[pyrrolidine-3,3′-quinoline]-1-carbonitrile], the IC50 under setting [1] lay in the range of 100 to 1000 nM.

Take `N#CN1CCC2(Cc3cc(-c4cccc(OCc5ccccc5Cl)c4)ccc3NC2=O)C1` (stereo not drawn) [Example 102, 6′-(3-((2-Chlorobenzyl)oxy)phenyl)-2′-oxo-1′,4′-dihydro-2′H-spiro[pyrrolidine-3,3′-quinoline]-1-carbonitrile]: the IC50 under setting [1] lay in the range of 1000 to 10000 nM.

In the case of `N#Cc1ccc(-c2ccc3c(c2)NC(=O)C2(CCN(C#N)C2)C3)cc1` (stereo not drawn) [Example 13, 7′-(4-Cyanophenyl)-2′-oxo-1′,4′-dihydro-2′H-spiro[pyrrolidine-3,3′-quinoline]-1-carbonitrile], the IC50 under setting [1] is 1000 to 10000 nM.

For the molecule `Cc1ccc2[nH]ncc2c1-c1ccc2c(c1)NC(=O)[C@@]1(CCN(C#N)C1)C2` [Example 132, (R)-7′-(5-Methyl-H-indazol-4-yl)-2′-oxo-1′,4′-dihydro-2′H-spiro[pyrrolidine-3,3′-quinoline]-1-carbonitrile], the half-inhibitory concentration (IC50) under setting [1] fell in the range of 100 to 1000 nM.

Take `N#CN1CCC2(C1)Nc1ncc(-c3cccc(F)c3)cc1NC2=O` (stereo not drawn) [Example 60, 7-(3-Fluorophenyl)-2-oxo-1,4-dihydro-2H-spiro[pyrido[2,3-b]pyrazine-3,3′-pyrrolidine]-1′-carbonitrile]: the IC50 under setting [1] is 100 to 1000 nM.

With `N#CN1CCC2(C1)Oc1ncc(-c3cccc4c3cnn4CCO)cc1NC2=O` (stereo not drawn) [Example 137, 7-(1-(2-Hydroxyethyl)-1H-indazol-4-yl)-2-oxo-1,2-dihydrospiro[pyrido[2,3-b][1,4]oxazine-3,3′-pyrrolidine]-1′-carbonitrile], under setting [1], the concentration for half-maximal inhibition (IC50) is under 100 nM.
